The source of these data is patent publication US9468650B2, “Inhibition of endosomal toll-like receptor activation” (DUKE UNIVERSITY, priority 2009, dated 2016).

The test system of one series is TLR3. Briefly: Cytokine production (TNFα, IL-6) of murine macrophage Raw264.7 stimulated with poly I:C. Type of series: cell-based. The note with it: TNFα and IL-6 by ELISA. For orientation: An ELISA detects its analyte on a solid surface through an enzyme-linked reagent.
In the next series the test system is mammalian cell lines. The note with it: cited from earlier work.
The conditions of series [1]: mouse, in vivo; cited from earlier work.
The conditions of series [2]: mouse, in vivo, 40 mg/kg.

Turning to protamine [reference compound], in the series with Raw264.7 cells, the “concentration inducing over 50% cell death” value was around 280 µg/mL. The “effect on poly I:C (TLR3 ligand) induced inflammatory cytokine production” value in the series with TLR3 is reported as “did not block but significantly enhanced”. Regarding Polyethyleneimine [PEI], in the series with mammalian cell lines, the “cytotoxicity (remark)” value is 3. high cytotoxicity.

By LD50 is commonly meant the dose expected to kill half of the subjects tested. With “β-cyclodextrin-containing polycation [CDP]”, the tolerability on macrophages entry in the series with Raw264.7 cells is given as “well tolerated”. Also, in series [1], the median lethal dose (LD50) is 200 mg/kg. For the same substance, the “adverse effects on viability of mice” value in series [2] is on record as “no adverse effects on viability”.

For the substance Poly(allylamine) [PAL], in the series on mammalian cell lines, the “cytotoxicity (remark)” value was 1. Commercially available. 2. Highly positive charged 3. Low toxicity. Consider “polyamidoamine dendrimer, 1,4-diaminobutane core, G3 [PAMAM]”, for which, in the series with Raw264.7 cells, the “concentration inducing over 50% cell death” value is “about 160 μg/ml”. The “adverse effects on viability of mice” value in series [2] is on record as “no adverse effects on viability”.
